Results published in patent US7396837B2, “Antitumoral analogs of lamellarins” (Pharma Mar, S.A.U., priority 2002, dated 2008).
Where two headings read alike, the source gives them in different places.

Tests used:
[1] = tested on: HeLa-APL; assay: SRB colorimetric cell growth inhibition assay, HeLa-APL (aplidine resistant); type: cell-based; conditions: Homo sapiens; for GI50: read-out: GI50 HELA-APL; for CC50: read-out: LC50 HELA-APL; for IC (TGI): read-out: TGI HELA-APL
Method in brief: (§1)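 Growth inhibition (GI), cytostatic total growth inhibition (TGI) and cytotoxic cell-kill (LC) parameters were calculated from SRB-stained cultures held under constant compound exposure, triplicates averaged.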

[2] = tested on: HeLa; assay: SRB colorimetric cell growth inhibition assay, HeLa; type: cell-based; conditions: Homo sapiens, HeLa; for GI50: read-out: GI50 HELA; for CC50: read-out: LC50 HELA; for IC (TGI): read-out: TGI HELA
Method in brief: as §1

[3] = target: T1, human topoisomerase I (Homo sapiens, UniProt P11387); assay: Topoisomerase I cleavage of radiolabeled 117-bp DNA fragment; type: biochemical; conditions: 117-bp DNA restriction fragment 3' end-labeled; for topoisomerase I-mediated DNA cleavage sites / cleavage profile: sequencing-type polyacrylamide gels
T1 sequence (P11387 1-765): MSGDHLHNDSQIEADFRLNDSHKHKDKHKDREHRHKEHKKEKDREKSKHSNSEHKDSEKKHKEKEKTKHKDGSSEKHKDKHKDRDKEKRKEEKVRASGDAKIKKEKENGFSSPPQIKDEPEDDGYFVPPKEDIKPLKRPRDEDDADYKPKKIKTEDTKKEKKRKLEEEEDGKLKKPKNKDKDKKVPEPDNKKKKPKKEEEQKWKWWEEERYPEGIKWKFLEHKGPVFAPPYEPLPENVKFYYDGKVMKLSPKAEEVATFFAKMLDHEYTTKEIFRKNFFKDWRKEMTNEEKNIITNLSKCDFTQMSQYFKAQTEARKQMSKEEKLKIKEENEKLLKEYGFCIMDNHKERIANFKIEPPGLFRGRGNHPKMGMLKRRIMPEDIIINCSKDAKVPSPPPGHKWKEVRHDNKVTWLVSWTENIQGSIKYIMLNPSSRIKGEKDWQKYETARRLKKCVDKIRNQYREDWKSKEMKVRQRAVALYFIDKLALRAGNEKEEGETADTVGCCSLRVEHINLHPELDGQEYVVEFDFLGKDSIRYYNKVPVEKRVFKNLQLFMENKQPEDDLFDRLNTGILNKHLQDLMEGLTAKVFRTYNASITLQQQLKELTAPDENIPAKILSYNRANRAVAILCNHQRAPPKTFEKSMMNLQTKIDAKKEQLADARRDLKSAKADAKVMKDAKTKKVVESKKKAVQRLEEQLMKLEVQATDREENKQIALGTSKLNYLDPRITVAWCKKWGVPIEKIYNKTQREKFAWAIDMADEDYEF
From the text: Two assays, based on DNA relaxation and DNA cleavage (Bailly, C. DNA relaxation and cleavage assays to study topoisomerase I inhibitors. Methods Enzymol. 2001, 340, 610-623) were used evaluate the effects of the lamellarin analogs on the catalytic activity of human topoisomerase I.
A second assay, based on the cleavage of a radiolabeled DNA substrate by topoisomerase I, was used to confirm that the cationic lamellarin derivatives do effectively function as topoisomerase I poisons. A 117-bp DNA restriction fragment uniquely end-labeled at the 3′ end was subjected to cleavage by topoisomerase I in the presence of the different compounds and the resulting DNA cleavage products were resolved on sequencing-type polyacrylamide gels. The advantage of this assay is to detect the cleavage sites and to locate their positions with nucleotide resolution, providing thus information on the site selectivity of cleavage.

[4] = tested on: SKOV-3; assay: SRB colorimetric cell growth inhibition assay, SKOV-3; type: cell-based; conditions: Homo sapiens; for GI50: SK-OV-3, SKOV-3, GI=growth inhibition, read-out: GI50 SKOV-3; for IC (TGI): total growth inhibition (cytostatic effect), read-out: TGI SKOV-3
Method in brief: (§2)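 Sulforhodamine B colorimetric assay of cell growth and viability, mean ± SD of triplicate wells. Parameters derived: GI (growth inhibition), TGI (total growth inhibition, cytostatic) and LC (cell killing, cytotoxic).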

[5] = tested on: H-MEC-1; assay: SRB colorimetric cell growth inhibition assay, H-MEC-1; type: cell-based; conditions: Homo sapiens, HMEC-1, H-MEC-1; for GI50: GI=growth inhibition, read-out: GI50 H-MEC-1; for IC (TGI): total growth inhibition (cytostatic effect), read-out: TGI H-MEC-1
Method in brief: as §2

[6] = as above; type: cell-based; conditions: human
Method in brief: as §2

[7] = as above; type: cell-based; conditions: human, H-MEC-1, LC=cell killing (cytotoxic effect), read-out: LC50 H-MEC-1
Method in brief: (§3)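 SRB colorimetric readout of cell growth/viability in 96-well format. Means ± SD from triplicate wells; GI (growth inhibition), TGI (total growth inhibition, cytostatic) and LC (cell killing, cytotoxic) parameters derived.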

[8] = tested on: SKOV-3; assay: SRB colorimetric cell growth inhibition assay, SKOV-3; type: cell-based; conditions: Homo sapiens; for GI50: SK-OV-3, SKOV-3, GI=growth inhibition, read-out: GI50 SKOV-3; for IC (TGI): TGI=total growth inhibition (cytostatic effect), read-out: TGI SKOV-3
Method in brief: as §3

[9] = tested on: H-MEC-1; assay: SRB colorimetric cell growth inhibition assay, H-MEC-1; type: cell-based; conditions: Homo sapiens, HMEC-1, H-MEC-1; for GI50: GI=growth inhibition; for IC (TGI): TGI=total growth inhibition (cytostatic effect), read-out: TGI H-MEC-1
Method in brief: as §3

[10] = HELA-APL, cell killing (cytotoxic effect)
[11] = HELA-APL, total growth inhibition (cytostatic effect)
[12] = cell killing (cytotoxic effect)
[13] = total growth inhibition (cytostatic effect)
[14] = SK-OV-3, SKOV-3, cell killing (cytotoxic effect), read-out: LC50 SKOV-3
[15] = H-MEC-1, cell killing (cytotoxic effect), read-out: LC50 H-MEC-1
[16] = SK-OV-3, SKOV-3, LC=cell killing (cytotoxic effect), read-out: LC50 SKOV-3

COc1cc(-c2c3n(c4c(=O)oc5cc(OC(=O)[C@H](C)NC(=O)[C@H](C)NC(=O)OC(C)(C)C)c(OC)cc5c24)CCc2cc(OC(=O)[C@H](C)NC(=O)[C@H](C)NC(=O)OC(C)(C)C)c(OC)cc2-3)ccc1OC(=O)[C@H](C)NC(=O)[C@H](C)NC(=O)OC(C)(C)C [Compound 7]
GI50 [1]: 1.85 µM
CC50 [1]: 7.24 µM
IC (TGI) [1]: 3.66 µM
GI50 [2]: 0.83 µM
CC50 [2]: 4.42 µM
IC (TGI) [2]: 1.91 µM
stimulation of DNA cleavage by topoisomerase I (radiolabeled DNA substrate) [3]: stimulate DNA cleavage by the enzyme

COc1cc(-c2c3n(c4c(=O)oc5cc(OC(=O)CCc6ccccc6)c(OC)cc5c24)CCc2cc(OC(=O)CCc4ccccc4)c(OC)cc2-3)ccc1OC(=O)CCc1ccccc1 [Compound 11]
GI50 ([1]; HELA-APL, GI=growth inhibition): 5.23 µM
CC50 [1, 10]: 11.1 µM
IC (TGI) [1, 11]: 11.1 µM
GI50 ([2]; GI=growth inhibition): 0.208 µM
CC50 [2, 12]: 11.1 µM
IC (TGI) [2, 13]: 1.35 µM

COc1cc(-c2c3c4cc(OC)c(OC(=O)[C@H](N)C(C)C)cc4oc(=O)c3n3ccc4cc(OC(=O)[C@H](N)C(C)C)c(OC)cc4c23)ccc1OC(=O)[C@H](N)C(C)C [Compound 17]
GI50 ([1]; HELA-APL, GI=growth inhibition): 0.119 µM
CC50 [1, 10]: 1.85 µM
IC (TGI) [1, 11]: 0.353 µM
GI50 ([2]; GI=growth inhibition): 0.109 µM
CC50 [2, 12]: 0.878 µM
IC (TGI) [2, 13]: 0.359 µM
stimulation of DNA cleavage by topoisomerase I (radiolabeled DNA substrate) [3]: no difference between the (L) (36) and (D) (17) Val isomers

COc1cc(-c2c3n(c4c(=O)oc5cc(OC(=O)[C@@H](N)Cc6c[nH]c7ccccc67)c(OC)cc5c24)CCc2cc(OC(=O)[C@@H](N)Cc4c[nH]c5ccccc45)c(OC)cc2-3)ccc1OC(=O)[C@@H](N)Cc1c[nH]c2ccccc12 [Compound 24]
GI50 [4]: 1.67 µM
LC50 (concentration causing 50% net cell killing) [4, 14]: 6.9 µM
IC (TGI) ([4]; SK-OV-3, SKOV-3): 3.39 µM
GI50 [5]: 0.806 µM
IC (TGI) [5]: 2.2 µM
LC50 (concentration giving 50% net cell killing) [6, 15]: 5.97 µM

COc1cc(-c2c3n(c4c(=O)oc5cc(OC(=O)[C@H](N)C(C)C)c(OC)cc5c24)CCc2cc(OC(=O)[C@H](N)C(C)C)c(OC)cc2-3)ccc1OC(=O)[C@H](N)C(C)C [Compound 32]
GI50 [4]: 1.86 µM
LC50 (concentration causing 50% net cell killing) ([4]; SK-OV-3, read-out: LC50 SKOV-3): 7.27 µM
IC (TGI) ([4]; SK-OV-3, SKOV-3): 3.67 µM
GI50 [5]: 0.276 µM
IC (TGI) [5]: 0.723 µM
LC50 (concentration giving 50% net cell killing) [6]: 5.37 µM

COc1cc(-c2c3c4cc(OC)c(OC(=O)[C@@H]5CCCN5)cc4oc(=O)c3n3ccc4cc(OC(=O)[C@@H]5CCCN5)c(OC)cc4c23)ccc1OC(=O)[C@@H]1CCCN1 [Compound 33]
GI50 [4]: 0.0391 µM
LC50 (concentration causing 50% net cell killing) [4, 14]: 5.03 µM
IC (TGI) ([4]; SK-OV-3, SKOV-3): 0.228 µM
GI50 [5]: 0.0098 µM
IC (TGI) [5]: 0.0214 µM
LC50 (concentration giving 50% net cell killing) ([6]; H-MEC-1 cells, H-MEC-1, cell killing (cytotoxic effect), read-out: LC50 H-MEC-1): 0.0463 µM
topoisomerase I-mediated DNA cleavage sites / cleavage profile [3]: Cleavage profiles identical to that of 3

COc1cc(-c2c3n(c4c(=O)oc5cc(OC(=O)[C@H](NC(=O)OC(C)(C)C)C(C)C)c(OC)cc5c24)CCc2cc(OC(=O)[C@H](NC(=O)OC(C)(C)C)C(C)C)c(OC)cc2-3)ccc1OC(=O)[C@H](NC(=O)OC(C)(C)C)C(C)C [Compound 34]
GI50 [4]: 1.27 µM
LC50 (concentration causing 50% net cell killing) [4, 14]: 6.65 µM
IC (TGI) ([4]; SK-OV-3, SKOV-3): 2.91 µM
GI50 [5]: 0.244 µM
IC (TGI) [5]: 0.653 µM
LC50 (concentration giving 50% net cell killing) [6, 15]: 3.44 µM

COc1cc(-c2c3c4cc(OC)c(OC(=O)[C@@H](NC(=O)OC(C)(C)C)C(C)C)cc4oc(=O)c3n3ccc4cc(OC(=O)[C@@H](NC(=O)OC(C)(C)C)C(C)C)c(OC)cc4c23)ccc1OC(=O)[C@@H](NC(=O)OC(C)(C)C)C(C)C [Compound 38]
CC50 [7]: 9.11 µM
GI50 [4]: 0.684 µM
IC (TGI) ([4]; SK-OV-3, SKOV-3): 7.42 µM
GI50 [5]: 0.0809 µM
IC (TGI) [5]: 0.911 µM
CC50 ([8]; SK-OV-3, read-out: LC50 SKOV-3): 9.11 µM

COc1cc(-c2c3c4cc(OC)c(OC(=O)[C@@H](N)CC(C)C)cc4oc(=O)c3n3ccc4cc(OC(=O)[C@@H](N)CC(C)C)c(OC)cc4c23)ccc1OC(=O)[C@@H](N)CC(C)C [Compound 39]
GI50 [9]: 0.00698 µM
IC (TGI) [9]: 8.47 µM
CC50 ([7]; H-MEC-1 cells): 8.47 µM
GI50 [8]: 0.0634 µM
CC50 [8, 16]: 8.47 µM
IC (TGI) ([8]; SK-OV-3, SKOV-3): 8.47 µM
topoisomerase I-mediated DNA cleavage sites / cleavage profile [3]: Cleavage profiles identical to that of 3

COc1cc(-c2c3c4cc(OC)c(OC(=O)[C@H](C)N)cc4oc(=O)c3n3ccc4cc(OC(=O)[C@H](C)N)c(OC)cc4c23)ccc1OC(=O)[C@H](C)N [Compound 40]
GI50 [8]: 0.0284 µM
CC50 [8, 16]: 9.48 µM
IC (TGI) ([8]; SK-OV-3, SKOV-3): 0.107 µM

COc1cc(-c2c3n(c4c(=O)oc5cc(O)c(OC)cc5c24)CCc2cc(O)c(OC)cc2-3)ccc1O [Compound 109]
GI50 [9]: 0.917 µM
IC (TGI) [9]: 19.9 µM
CC50 ([7]; H-MEC-1 cells): 19.9 µM
GI50 [8]: 2.49 µM
CC50 [8, 16]: 19.9 µM
IC (TGI) ([8]; SK-OV-3, SKOV-3): 11.8 µM

COc1cc(-c2c3c4cc(OC)c(OC(=O)CCCCCN)cc4oc(=O)c3n3ccc4cc(OC(=O)CCCCCN)c(OC)cc4c23)ccc1OC(=O)CCCCCN [Compound 169]
GI50 ([1]; HELA-APL, GI=growth inhibition): 0.0705 µM
CC50 [1, 10]: 2.97 µM
IC (TGI) [1, 11]: 0.53 µM
GI50 ([2]; GI=growth inhibition): 0.0557 µM
CC50 [2, 12]: 4.42 µM
IC (TGI) [2, 13]: 1.39 µM
stimulation of DNA cleavage by topoisomerase I (radiolabeled DNA substrate) [3]: stimulate DNA cleavage by the enzyme
